Substitutions are numbered along the chain they refer to.

Common to all, as to test: HEK assay: α-Gal A activity in HEK-293 cell lysate with migalastat
Assay type in all cases: cell-based

Test [1] deals with T1, α-Gal A mutant form p.Arg356Trp (c.1066 C > T) (Homo sapiens, UniProt P06280, R356W).
T1 construct: expressed in transfected cells; host or cells: HEK-293
T1 sequence (P06280 32-429 R356W): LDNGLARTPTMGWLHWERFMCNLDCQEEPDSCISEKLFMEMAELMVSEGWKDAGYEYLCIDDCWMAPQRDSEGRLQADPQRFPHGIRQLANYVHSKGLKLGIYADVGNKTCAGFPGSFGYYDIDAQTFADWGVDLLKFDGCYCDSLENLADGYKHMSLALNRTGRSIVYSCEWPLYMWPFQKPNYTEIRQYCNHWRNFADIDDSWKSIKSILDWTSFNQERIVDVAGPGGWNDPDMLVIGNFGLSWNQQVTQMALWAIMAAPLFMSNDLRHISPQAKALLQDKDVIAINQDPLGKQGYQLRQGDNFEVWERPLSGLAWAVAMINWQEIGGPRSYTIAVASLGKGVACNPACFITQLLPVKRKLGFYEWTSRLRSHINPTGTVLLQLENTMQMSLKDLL
The procedure:
(§1) Such mutations are also referred to herein as “HEK assay amenable” mutations.
(§2) In this assay, cDNA constructs are created. The corresponding α-Gal A mutant forms are transiently expressed in HEK-293 cells. Cells are then incubated±migalastat (17 nM to 1 mM) for 4 to 5 days. After, α-Gal A levels are measured in cell lysates using a synthetic fluorogenic substrate (4-MU-α-Gal) or by western blot. This has been done for known disease-causing missense or small in-frame insertion/deletion mutations.

Test [2] addresses T2, α-Gal A mutant form p.Asp55Val/Glu57Leu (c.164 A > T; c.170 A > T) (Homo sapiens, UniProt P06280, D55V/Q57L).
T2 construct: expressed in transfected cells; host or cells: HEK-293
T2 sequence (P06280 32-429 D55V/Q57L): T1 sequence (P06280 32-429 R356W) with D24V, Q26L, W325R
The protocol: as §1, §2

Test [3] has as its target T3, α-Gal A mutant form p.Gly260Ala (c.779 G > C) (Homo sapiens, UniProt P06280, G260A).
T3 construct: expressed in transfected cells; host or cells: HEK-293
T3 sequence (P06280 32-429 G260A): T1 sequence (P06280 32-429 R356W) with G229A, W325R
The procedure: as §1, §2

In test [4] the target is T4, α-Gal A mutant form p.Leu243Phe (c.729 G > C) (Homo sapiens, UniProt P06280, L243F).
T4 construct: expressed in transfected cells; host or cells: HEK-293
T4 sequence (P06280 32-429 L243F): T1 sequence (P06280 32-429 R356W) with L212F, W325R
The procedure: as §1, §2

Test [5] deals with T5, α-Gal A mutant form p.Leu36Trp (c.107 T > G) (Homo sapiens, UniProt P06280, L36W).
T5 construct: expressed in transfected cells; host or cells: HEK-293
T5 sequence (P06280 32-429 L36W): T1 sequence (P06280 32-429 R356W) with L5W, W325R
The procedure: as §1, §2

Setting [6] is: +10 μM migalastat, HEK-293 cell lysate, mean ± SEM, n = 20.
The mark [7] stands for this setting: HEK293, 10 μM migalastat minus baseline, read-out: Absolute increase at 10 μM (% WT).

In the case of `OC[C@H]1NC[C@H](O)[C@@H](O)[C@H]1O` [migalastat], the “α-Gal A activity at 10 μM (fold over baseline)” value is 4.42 fold over baseline in test [1] (10 μM migalastat), 4.84 fold over baseline in test [3] (10 μM migalastat), 5.33 fold over baseline in test [4] (10 μM migalastat) and 21.49 fold over baseline in test [5] (10 μM migalastat). For the same molecule, the “+Migalastat α-Gal A activity” value in test [1] (setting [6]) came out at 15570 ± 830 nmol/mg/h; in test [2] (setting [6]) it was 2526 ± 287 nmol/mg/h; in test [3] (setting [6]) it was 10749 ± 403 nmol/mg/h; in test [4] (setting [6]), 14370 ± 618 nmol/mg/h; in test [5] (setting [6]), 5182 ± 463 nmol/mg/h. Moreover, the “+Migalastat α-Gal A activity % WT” value worked out at 49.1 ± 2.6 % WT in test [1] (setting [6]); 8.0 ± 0.5 % WT in test [2] (setting [6]); 37.4 ± 3.1 % WT in test [3] (setting [6]); 42.3 ± 1.4 % WT in test [4] (setting [6]); 16.6 ± 2.1 % WT in test [5] (setting [6]). Further, the activation at 10 µM in test [1] (setting [7]) was determined as 38.1%; in test [2] (10 μM migalastat minus baseline, read-out: Absolute increase at 10 μM (% WT)) it was 8%; in test [3] (setting [7]) it was 29.9%; in test [4] (setting [7]), 34.4%; in test [5] (setting [7]), 15.9%.

The values above are taken from US20210038579A1, “Treatment Of Patients With Classic Fabry Disease” (Amicus Therapeutics, Inc., priority 2018, published 2021).
